Experimental data reported in article doi:10.1101/580449v1 (biorxiv, 2019).

Assays:
[1] = target: T1, CSTZM (wildtype sequence) (Zea mays, UniProt B4FZ94); assay: GFP-thermal shift titration; assay type: binding
T1 sequence (B4FZ94 1-322): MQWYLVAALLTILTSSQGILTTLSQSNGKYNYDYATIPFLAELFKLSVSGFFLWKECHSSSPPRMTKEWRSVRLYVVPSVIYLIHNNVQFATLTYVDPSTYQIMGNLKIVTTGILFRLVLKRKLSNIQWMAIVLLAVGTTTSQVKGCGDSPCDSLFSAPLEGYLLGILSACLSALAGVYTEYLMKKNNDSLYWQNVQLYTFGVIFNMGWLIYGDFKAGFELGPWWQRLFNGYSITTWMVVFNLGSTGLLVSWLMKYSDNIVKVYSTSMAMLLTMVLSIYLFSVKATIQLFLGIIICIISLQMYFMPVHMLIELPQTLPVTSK

hCST = target: T2, hCST (Homo sapiens, UniProt P78382); assay: GFP-thermal shift titration; assay type: binding
T2 sequence (P78382 1-337): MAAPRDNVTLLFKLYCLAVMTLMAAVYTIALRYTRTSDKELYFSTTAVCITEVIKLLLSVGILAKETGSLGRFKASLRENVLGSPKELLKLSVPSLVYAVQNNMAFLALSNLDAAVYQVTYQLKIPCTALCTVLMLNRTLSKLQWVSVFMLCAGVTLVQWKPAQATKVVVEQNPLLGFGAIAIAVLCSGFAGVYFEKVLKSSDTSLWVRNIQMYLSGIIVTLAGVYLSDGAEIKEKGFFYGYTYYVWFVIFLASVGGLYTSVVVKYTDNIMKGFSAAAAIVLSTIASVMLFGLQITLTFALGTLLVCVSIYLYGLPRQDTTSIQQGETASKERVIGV

Question: Which results are given for `CC(=O)N[C@H]1[C@H]([C@H](O)[C@H](O)CO)O[C@](OP(=O)(O)OC[C@H]2O[C@@H](n3ccc(N)nc3=O)[C@H](O)[C@@H]2O)(C(=O)O)C[C@@H]1O` [CMP-sialic acid]?
Answer: Kd [1]: 3100 ± 200 µM; Kd (hCST): 1500 ± 300 µM

Question: Which results are given for `Nc1ccn([C@@H]2O[C@H](COP(=O)(O)O)[C@@H](O)[C@H]2O)c(=O)n1` [CMP]?
Answer: Kd [1]: 40 µM; Kd (hCST): 40 µM
